In patent publication US12630547B2, “RAS protein degraders, pharmaceutical compositions thereof, and their therapeutic applications” (BioTheryX, Inc., priority 2019, dated 2026):

How the values were obtained:
Format in all cases: cell-based
H358 cells = assay: Cell viability assay (CELLTITER-GLO), H358 cells; conditions: Table 4; 3 days
Summary of the method: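 H358 cells (RPMI 1640, 10% FBS), 4,000 per well, exposed to compound for 3 days at 37 °C, 5% CO2; viability by CellTiter-Glo luminescence. Single-dose viability as % DMSO at 10 or 1 μM, binned A (<10%) to D (≥50%); IC50 binned A (≤1 μM) to D (>10 μM).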

MOLM-13 cells = assay: Cell viability assay (CELLTITER-GLO), MOLM-13 cells; conditions: Homo sapiens, MOLM-13, 72 h; Table 2; compound at 10 μM, 3 days; read-out: Effect on MOLM-13 cell viability (% DMSO)
Summary of the method: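 MV-4-11 and MOLM-13 cells in RPMI 1640/10% FBS were seeded at 4,000 cells/well and exposed to compound (10 μM or 1 μM) or DMSO for 3 days at 37 °C, 5% CO2. CellTiter-Glo luminescence gave viability as % DMSO, binned into ranges A (<10%) through D (≥50%).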

H23 cells = assay: Cell viability assay (CELLTITER-GLO), H23 cells; conditions: Table 4; 3 days
Summary of the method: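 H23 cells in RPMI 1640 with 10% FBS, 4,000 cells/well, exposed to compound or DMSO for 3 days at 37° C, 5% CO2. Viability read by CellTiter-Glo luminescence after 10 min. IC50 reported in potency bins.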

Row | SMILES | Inhibition of H358 cells, IC50 (class) (H358 cells) | viability at 10 µM (MOLM-13 cells) | Inhibition of H23 cells, IC50 (class) (H23 cells)
1 | C=C(Cl)C(=O)N1CCN(c2ncnc3c(F)c(-c4c(F)cccc4OCCCCCCCN4CCCC(c5cc6c(cc5F)C(=O)N(C5CCC(=O)NC5=O)C6)C4)c(Cl)cc23)CC1 (stereo not drawn) [Compound 119, 3-(5-(1-(7-(2-(6-Chloro-4-(4-(2-chloroacryloyl)piperazin-1-yl)-8-fluoroquinazolin-7-yl)-3-fluorophenoxy)heptyl)piperidin-3-yl)-6-fluoro-1-oxoisoindolin-2-yl)piperidine-2,6-dione] | B′ | < 10% | A′
2 | CCC(=O)N1CCN(c2ncnc3c(F)c(-c4c(F)cccc4OCCc4cn(CCN5CCC(c6cc(F)cc7c6CN(C6CCC(=O)NC6=O)C7=O)CC5)nn4)c(Cl)cc23)CC1 (stereo not drawn) [Compound 92, 3-(4-(1-(2-(4-(2-(2-(6-Chloro-8-fluoro-4-(4-propionylpiperazin-1-yl)quinazolin-7-yl)-3-fluorophenoxy)ethyl)-1H-1,2,3-triazol-1-yl)ethyl)piperidin-4-yl)-6-fluoro-1-oxoisoindolin-2-yl)piperidine-2,6-dione] | C′ | ≥ 50% | D′
3 | C=CC(=O)N1CC(N2Cc3ccc(-c4cc(O)cc5ccccc45)cc3N(CCOCCOCCNc3cccc4c3C(=O)N(C3CCC(=O)NC3=O)C4=O)C2=O)C1 (stereo not drawn) [Compound 45, 4-((2-(2-(2-(3-(1-Acryloylazetidin-3-yl)-7-(3-hydroxynaphthalen-1-yl)-2-oxo-3,4-dihydroquinazolin-1(2H)-yl)ethoxy)ethoxy)ethyl)amino)-2-(2,6-dioxopiperidin-3-yl)isoindoline-1,3-dione] | C′ | ≥ 50% | B′
4 | CCC(=O)N1CC(N2Cc3ccc(-c4cc(O)cc5ccccc45)cc3N(CCCCCCCN3CCC(c4cc(F)cc5c4CN(C4CCC(=O)NC4=O)C5=O)CC3)C2=O)C1 (stereo not drawn) [Compound 44, 3-(6-Fluoro-4-(1-(7-(7-(3-hydroxynaphthalen-1-yl)-2-oxo-3-(1-propionylazetidin-3-yl)-3,4-dihydroquinazolin-1(2H)-yl)heptyl)piperidin-4-yl)-1-oxoisoindolin-2-yl)piperidine-2,6-dione] | C′ | < 10% | B′
5 | C=C(Cl)C(=O)N1CCN(c2nc(OCCN(C)C)nc3c(F)c(-c4c(F)cccc4OCCCCCCCN4CCC(c5cc(F)cc6c5CN(C5CCC(=O)NC5=O)C6=O)CC4)c(Cl)cc23)CC1 (stereo not drawn) [Compound 115, 3-(4-(1-(7-(2-(6-Chloro-4-(4-(2-chloroacryloyl)piperazin-1-yl)-2-(2-(dimethylamino)-ethoxy)-8-fluoroquinazolin-7-yl)-3-fluorophenoxy)heptyl)piperidin-4-yl)-6-fluoro-1-oxoisoindolin-2-yl)piperidine-2,6-dione] | B′ | < 10% | A′
6 | C=CC(=O)N1C[C@H](C)N(c2nc(OCCOCCOCCOCCNc3cccc4c3C(=O)N(C3CCC(=O)NC3=O)C4=O)nc3c(F)c(-c4c(O)cccc4F)c(Cl)cc23)C[C@H]1C (stereo partly drawn) [Compound 58, 4-((2-(2-(2-(2-((4-((2S,5R)-4-Acryloyl-2,5-dimethylpiperazin-1-yl)-6-chloro-8-fluoro-7-(2-fluoro-6-hydroxyphenyl)quinazolin-2-yl)oxy)ethoxy)ethoxy)ethoxy)ethyl)amino)-2-(2,6-dioxopiperidin-3-yl)isoindoline-1,3-dione] | B′ | < 10% | B′
7 | C=C(Cl)C(=O)N1CCN(c2nc(=O)n(-c3ccccc3C(C)C)c3nc(-c4c(F)cccc4OCCCCCCCN4CCC(c5cc(F)cc6c5CN(C5CCC(=O)NC5=O)C6=O)CC4)c(F)cc23)[C@@H](C)C1 (stereo partly drawn) [Compound 100, 3-(4-(1-(7-(2-(4-((S)-4-(2-Chloroacryloyl)-2-methylpiperazin-1-yl)-6-fluoro-1-(2-isopropylphenyl)-2-oxo-1,2-dihydropyrido[2,3-d]pyrimidin-7-yl)-3-fluorophenoxy)heptyl)piperidin-4-yl)-6-fluoro-1-oxoisoindolin-2-yl)piperidine-2,6-dione] | A′ | < 10% | A′
8 | O=C1CCC(N2Cc3c(cc(F)cc3C3CCN(CCCCCCCOc4cccc(F)c4-c4c(Cl)cc5c(N6CCN(C(=O)C7COC7)CC6)ncnc5c4F)CC3)C2=O)C(=O)N1 (stereo not drawn) [Compound 81, 3-(4-(1-(7-(2-(6-Chloro-8-fluoro-4-(4-(oxetane-3-carbonyl)piperazin-1-yl)quinazolin-7-yl)-3-fluorophenoxy)heptyl)piperidin-4-yl)-6-fluoro-1-oxoisoindolin-2-yl)piperidine-2,6-dione] | C′ | ≥ 50% | C′

Continued, in another order:

Row | Inhibition of H358 cells, IC50 (class) (H358 cells) | SMILES | viability at 10 µM (MOLM-13 cells) | Inhibition of H23 cells, IC50 (class) (H23 cells)
9 | B′ | C/C=C(\Cl)C(=O)N1CCN(c2ncnc3c(F)c(-c4c(F)cccc4OCCCCCCCN4CCC(c5cc(F)cc6c5CN(C5CCC(=O)NC5=O)C6=O)CC4)c(Cl)cc23)CC1 (stereo not drawn) [Compound 96, (Z)-3-(4-(1-(7-(2-(6-Chloro-4-(4-(2-chlorobut-2-enoyl)piperazin-1-yl)-8-fluoroquinazolin-7-yl)-3-fluorophenoxy)heptyl)piperidin-4-yl)-6-fluoro-1-oxoisoindolin-2-yl)piperidine-2,6-dione] | < 10% | B′
10 | B′ | CCC(=O)N1C[C@@H]2C(=O)N(C)c3cnc4c(F)c(-c5c(F)cccc5OCCCCCCCN5CCC(c6cc(F)cc7c6CN(C6CCC(=O)NC6=O)C7=O)CC5)c(Cl)cc4c3N2C[C@H]1C (stereo partly drawn) [Compound 65, 3-(4-(1-(7-(2-((2R,4aR)-11-Chloro-9-fluoro-2,6-dimethyl-5-oxo-3-propionyl-2,3,4,4a,5,6-hexahydro-1H-pyrazino[11′,2′:4,5]pyrazino[2,3-c]quinolin-10-yl)-3-fluorophenoxy)heptyl)piperidin-4-yl)-6-fluoro-1-oxoisoindolin-2-yl)piperidine-2,6-dione] | < 10% | B′
11 | B′ | C=C(Cl)C(=O)N1CCN(c2ncnc3c(F)c(-c4c(F)cccc4OCCCCCCCCCN4CCC(c5cc(F)cc6c5CN(C5CCC(=O)NC5=O)C6=O)CC4)c(Cl)cc23)CC1 (stereo not drawn) [Compound 113, 3-(4-(1-(9-(2-(6-Chloro-4-(4-(2-chloroacryloyl)piperazin-1-yl)-8-fluoroquinazolin-7-yl)-3-fluorophenoxy)nonyl)piperidin-4-yl)-6-fluoro-1-oxoisoindolin-2-yl)piperidine-2,6-dione] | < 10% | B′
12 | B′ | CCC(=O)Oc1cccc(F)c1-c1c(Cl)cc2c3c(cnc2c1F)N(CCCCCCCN1CCC(c2cc(F)cc4c2CN(C2CCC(=O)NC2=O)C4=O)CC1)C(=O)[C@H]1CN(C(=O)CC)[C@H](C)CN31 (stereo partly drawn) [Compound 95, 2-((2R,4aR)-11-Chloro-6-(7-(4-(2-(2,6-dioxopiperidin-3-yl)-6-fluoro-1-oxoisoindolin-4-yl)piperidin-1-yl)heptyl)-9-fluoro-2-methyl-5-oxo-3-propionyl-2,3,4,4a,5,6-hexahydro-1H-pyrazino[1′,2′:4,5]pyrazino[2,3-c]quinolin-10-yl)-3-fluorophenyl propionate] | < 10% | B′
13 | B′ | C=CC(=O)N1C[C@@H]2C(=O)N(C)c3cnc4c(F)c(-c5c(F)cccc5OCCCCCCCN5CCC(c6cc(F)cc7c6CN(C6CCC(=O)NC6=O)C7=O)CC5)c(Cl)cc4c3N2C[C@H]1C (stereo partly drawn) [Compound 64, 3-(4-(1-(7-(2-((2R,4aR)-3-Acryloyl-11-chloro-9-fluoro-2,6-dimethyl-5-oxo-2,3,4,4a,5,6-hexahydro-1H-pyrazino[1′,2′:4,5]pyrazino[2,3-c]quinolin-10-yl)-3-fluorophenoxy)heptyl)piperidin-4-yl)-6-fluoro-1-oxoisoindolin-2-yl)piperidine-2,6-dione] | < 10% | A′
14 | B′ | C=C(Cl)C(=O)N1C[C@@H]2C(=O)N(C)c3cnc4c(F)c(-c5c(F)cccc5OCCCCCCCN5CCC(c6cc(F)cc7c6CN(C6CCC(=O)NC6=O)C7=O)CC5)c(Cl)cc4c3N2C[C@H]1C (stereo partly drawn) [Compound 104, 3-(4-(1-(7-(2-((2R,4aR)-11-Chloro-3-(2-chloroacryloyl)-9-fluoro-2,6-dimethyl-5-oxo-2,3,4,4a,5,6-hexahydro-1H-pyrazino[1′,2′:4,5]pyrazino[2,3-c]quinolin-10-yl)-3-fluorophenoxy)-heptyl)piperidin-4-yl)-6-fluoro-1-oxoisoindolin-2-yl)piperidine-2,6-dione] | < 10% | B′
15 | B′ | CCC(=O)N1CCN(c2nc(=O)n(-c3ccccc3C(C)C)c3nc(-c4c(F)cccc4OCCCCCCCN4CCC(c5cc(F)cc6c5CN(C5CCC(=O)NC5=O)C6=O)CC4)c(F)cc23)[C@@H](C)C1 (stereo partly drawn) [Compound 73, 3-(6-Fluoro-4-(1-(7-(3-fluoro-2-(6-fluoro-1-(2-isopropylphenyl)-4-((S)-2-methyl-4-propionylpiperazin-1-yl)-2-oxo-1,2-dihydropyrido[2,3-d]pyrimidin-7-yl)phenoxy)heptyl)piperidin-4-yl)-1-oxoisoindolin-2-yl)piperidine-2,6-dione] | 10 to 25% | B′
